Source: PMC2897236 (Anesthesia and analgesia, 2009)
“Also recorded” adds a separate entry of the source. Where two headings read alike, the source gives them in different places.

Experiments:
GLIC = target: T1, GLIC (Gloeobacter violaceus, UniProt Q7NDN8); conditions: for Hill Coefficient: Hill (one-site) fit of inhibition of GLIC currents, mean ± se; for modulation of GLIC: at anesthetizing concentrations
T1 sequence (Q7NDN8 44-359): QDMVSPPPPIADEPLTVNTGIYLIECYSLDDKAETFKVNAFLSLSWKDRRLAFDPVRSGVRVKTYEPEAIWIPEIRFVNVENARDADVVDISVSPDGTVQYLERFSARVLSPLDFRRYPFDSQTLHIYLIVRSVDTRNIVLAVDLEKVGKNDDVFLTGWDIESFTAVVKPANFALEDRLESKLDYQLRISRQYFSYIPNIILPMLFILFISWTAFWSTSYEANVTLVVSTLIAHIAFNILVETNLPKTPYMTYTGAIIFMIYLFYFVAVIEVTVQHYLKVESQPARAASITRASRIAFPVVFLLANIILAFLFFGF

[1] = read-out: Anesthetic EC50; anesthetizing concentration in animals; cited from earlier work
GABAA receptors = conditions: modulation of GABAA receptors; cited from earlier work
5HT3A receptors = conditions: 1 MAC of halothane; cited from earlier work
α4 β2 nACh receptors = conditions: inhibition; cited from earlier work
glycine α1 receptors = conditions: enhancement of glycine currents; cited from earlier work
glycine α1 β receptors = conditions: enhancement of glycine currents; cited from earlier work
glycine receptors = conditions: cited from earlier work
[2] = tested on: GABAA receptors containing a δ subunit; conditions: cited from earlier work
[3] = tested on: α2 β4 neuronal nicotinic acetylcholine receptors; conditions: cited from earlier work
[4] = tested on: α4β2 neuronal nicotinic acetylcholine receptors; conditions: cited from earlier work
[5] = tested on: α2β2 neuronal nicotinic acetylcholine receptors; conditions: 75mM ethanol; cited from earlier work
[6] = tested on: α4β4 neuronal nicotinic acetylcholine receptors; conditions: 75mM ethanol; cited from earlier work
[7] = tested on: α3 β4 neuronal nicotinic acetylcholine receptors; conditions: cited from earlier work
5HT3 receptors = conditions: cited from earlier work
[8] = tested on: α3β2 neuronal nicotinic acetylcholine receptors; conditions: cited from earlier work
homomeric α7 receptors = conditions: 25–50 mM ethanol, response is variable; cited from earlier work
[9] = cited from earlier work
α4β2 nACh receptors = conditions: nitrous oxide at 0.6 atm; cited from earlier work
α4β4 nACh receptors = conditions: nitrous oxide at 0.6 atm; cited from earlier work
GABA receptors = conditions: nitrous oxide at 0.6 atm; cited from earlier work
[10] = IC50_1, two-site model, apparent affinity for site 1
[11] = IC50_2, two-site model, apparent affinity for site 2

FC(F)OC(F)C(F)(F)F (stereo not drawn) [Desflurane]
concentration at which inhibition of GLIC was produced (GLIC): 0.01 % of MAC
effect on currents through GLIC (current tracing) (GLIC; 0.5 mM desflurane): inhibit currents through GLIC
Hill Coefficient (GLIC): 0.25 ± 0.05
Hill Coefficient (GLIC; listed as desflurane): 0.25
IC50 (GLIC; [10]): 0.01 µM
IC50 (GLIC; [11]): 300 µM
EC50 [1]: 560 µM

CCOC(=O)c1cncn1[C@H](C)c1ccccc1 (single isomer, unassigned) [R isomer]
Hill Coefficient (GABAA receptors): 1.9

FC(F)(F)C(Cl)Br (stereo not drawn) [Halothane]
concentration at which inhibition of GLIC was produced (GLIC): 1 % of MAC
effect on currents through GLIC (current tracing) (GLIC; 0.25 mM halothane): inhibit currents through GLIC
Hill Coefficient (GLIC): 0.27 ± 0.04
Hill Coefficient (GLIC; listed as halothane): 0.27
IC50 (GLIC; [10]): 0.3 µM
IC50 (GLIC; [11]): 1100 µM
EC50 [1]: 230 µM
potentiation of 5HT3A receptors (5HT3A receptors): approximately 200%

CC(C)c1cccc(C(C)C)c1O [Propofol]
Hill number (α4 β2 nACh receptors): 2.9
IC50 (α4 β2 nACh receptors): 19 µM
EC50 (glycine α1 receptors): 16 µM
EC50 (glycine α1 β receptors): 27 µM
lowest concentration inhibiting currents (GLIC): 2 % of its anesthetic EC50
effect on currents through GLIC (current tracing) (GLIC; 1 μM propofol): inhibit currents through GLIC
Hill Coefficient (GLIC): 0.42 ± 0.08
Hill Coefficient (GLIC; listed as propofol): 0.42
EC50 [1]: 1.9 µM

CCOC(=O)c1cncn1[C@H](C)c1ccccc1 [Etomidate]
potentiation of currents through glycine receptors (glycine receptors; 300μM etomidate): 29%
effect on GLIC currents relative to anesthetic concentrations (GLIC): inhibitory only at concentrations above those used to achieve anesthesia
effect on currents through GLIC (current tracing) (GLIC; 50 μM etomidate): inhibit currents through GLIC
Hill Coefficient (GLIC): not different from 1

CCO [Ethanol]
lowest potentiating concentration [2]: 3 mM
effect on currents ([3]; 75mM ethanol): potentiates currents
effect on currents ([4]; 75mM ethanol): potentiates currents
effect on currents [5]: potentiates currents
effect on currents [6]: potentiates currents
sensitivity to ethanol [7]: not sensitive to ethanol
maximal increase in currents (5HT3 receptors; ethanol 50 to 200 mM): ≤ 50%
sensitivity to ethanol [8]: not sensitive to ethanol
effect on GLIC currents (GLIC; 200 mM ethanol compared to controls (p > 0.05)): no effect
effect on GLIC currents (GLIC; 200 mM ethanol compared to controls (p > 0.05), listed as ethanol): did not modulate channel currents
modulation of GLIC (GLIC): did not modulate GLIC
effect on receptors (homomeric α7 receptors): inhibits

[N-]=[N+]=O [Nitrous Oxide]
potentiation of glycine receptor function (glycine receptors; nitrous oxide at 0.6 atm): approximately 30%
Anesthetic EC50 ([9]; MAC in humans): 1.04 atm ([7])
inhibition (α4β2 nACh receptors): 39%
inhibition (α4β4 nACh receptors): 7%
inhibition (5HT3 receptors; nitrous oxide at 0.6 atm): approximately 15%
modulation of GLIC (GLIC): did not modulate GLIC
potentiation of GABA receptor function (GABA receptors): ~20%

FCOC(C(F)(F)F)C(F)(F)F [Sevoflurane]
effect on currents through 5HT3 receptors (5HT3 receptors; at MAC): inhibiting rather than enhancing currents
concentration at which inhibition of GLIC was produced (GLIC): 1 % of MAC
effect on currents through GLIC (current tracing) (GLIC; 0.3 mM sevoflurane): inhibit currents through GLIC
Hill Coefficient (GLIC): 0.27 ± 0.1
Hill Coefficient (GLIC; listed as sevoflurane): 0.27
EC50 [1]: 330 µM

CCOC(=O)c1cncn1[C@@H](C)c1ccccc1 (single isomer, unassigned) [S isomer]
Hill Coefficient (GABAA receptors): 2.9

[Xe] [Xenon]
Anesthetic EC50 ([9]; MAC of xenon in humans): 0.71 atm ([5])
effect on GLIC currents (GLIC; 0.8 atm xenon): significantly inhibited currents
effect on currents through GLIC (current tracing) (GLIC; 80 % atm xenon): inhibit currents through GLIC
Hill Coefficient (GLIC): 1.9 ± 0.47
Hill Coefficient (GLIC; listed as xenon): not different from 1; also recorded: not significantly different than 1

FC(F)OC(Cl)C(F)(F)F (stereo not drawn) [Isoflurane]
IC50 ([3]; α2 β4 isoform): 25 µM
IC50 ([4]; α4β2 isoform): 82 µM
Hill number (α4 β2 nACh receptors): 1.3
IC50 (α4 β2 nACh receptors): 85 µM
IC50 ([7]; α3 β4 isoform): 56 µM
potentiation of 5HT3 receptor function (5HT3 receptors; anesthetic concentration raised to 10 MAC): > 100%
enhancement of 5HT3 receptor function (5HT3 receptors; at MAC): less than 50%
concentration at which inhibition of GLIC was produced (GLIC): 1 % of MAC
effect on currents through GLIC (current tracing) (GLIC; 0.3 mM isoflurane): inhibit currents through GLIC
Hill Coefficient (GLIC): 0.32 ± 0.07
Hill Coefficient (GLIC; listed as isoflurane): 0.32
EC50 [1]: 280 µM
